Like-named read-outs stand apart in the source and are kept apart here.
What was measured:
[1] = system: A. baumannii NCTC 13420; test: Antibacterial assay, MIC/MBC by broth microdilution (CLSI); type: cell-based
How it was run: (§1)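 CLSI broth microdilution in cation-adjusted Mueller Hinton broth, log-phase inoculum diluted to 7.5×10^5 CFU/mL before 1:1 mixing with two-fold compound dilutions, triplicates, 18 h at 37 °C static. MIC: >90% inhibition by OD600; MBC: lowest concentration giving no colonies after 5 μL spotted on agar, 18 h, 37 °C.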

[2] = system: E. cloacae NCTC 13405; test: as above; type: cell-based; conditions: for MBC (in brackets) / MIC: E. cloacae NCTC 13405; for MIC: repeated twice, a/b = both values
How it was run: as §1

[3] = system: E. coli ATCC 25922; test: as above; type: cell-based; conditions: for MIC: repeated twice, a/b = both values
How it was run: as §1

[4] = system: E. faecalis ATCC 700221; test: as above; type: cell-based; conditions: for MIC: repeated twice, a/b = both values
How it was run: as §1

[5] = system: K. pneumoniae ATCC 700603; test: as above; type: cell-based
How it was run: as §1

[6] = system: P. aeruginosa NCTC 13437; test: as above; type: cell-based; conditions: for MBC (in brackets) / MIC: P. aeruginosa NCTC 13437; for MIC: repeated twice, a/b = both values
How it was run: as §1

[7] = system: S. aureus JE2 (USA300); test: as above; type: cell-based; conditions: for MBC (in brackets) / MIC: S. aureus JE2 (USA300); for MIC: repeated twice, a/b = both values
How it was run: as §1

[8] = Log P determination (n-octanol/water, FAAS)
How it was run: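 Shake-flask partition between mutually saturated n-octanol and water; Au in each phase quantified by flame AAS against aqueous Au-standard and n-octanol calibration curves. Compound shaken ~4 h in water then 1 h with octanol, or 3-4 h in both phases then diluted and shaken 1 h; log P = log([oct]/[water]).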

[9] = A. baumannii NCTC 13420, repeated twice, a/b = both values
[10] = K. pneumoniae ATCC 700603, repeated twice, a/b = both values

Substance: (2-Aminobenzenethiolato)(triethylphosphine) gold(I) [Compound 19]
- MBC (in brackets) ([1]; A. baumannii NCTC 13420): 18 μM/mL
- MIC [1, 9]: 18/36
- MBC (in brackets) [2]: (36/73)
- MIC [2]: 18/73
- MBC (in brackets) [3]: 36 (36) μM/mL
- MIC [3]: 36 (36) μM/mL
- MBC (in brackets) [4]: (0.1) μM/mL
- MIC [4]: 0.02 μM/mL
- MBC (in brackets) ([5]; K. pneumoniae ATCC 700603): 146 (146) μM/mL
- MIC [5, 10]: 146 (146) μM/mL
- MBC (in brackets) [6]: 291 (291) μM/mL
- MIC [6]: 291 (291) μM/mL
- MIC values in words ([7]; S. aureus): nanomolar range
- MBC (in brackets) [7]: (0.6) μM/mL
- MIC [7]: 0.009 μM/mL
- Log P [8]: 0.61

Substance: (2,3,4,6-Tetra-O-acetyl-1-thio-β-D-glucopyranosato) (triethylphosphine) gold(I) [Compound 1, reference compound]
- MIC/MBC ([1]; A. baumannii): 47 µM
- MBC (in brackets) ([1]; A. baumannii NCTC 13420): 47(47) μM/mL
- MIC [1, 9]: 47(47) μM/mL
- MBC (in brackets) [2]: 189 (189) μM/mL
- MIC [2]: 189 (189) μM/mL
- MBC (in brackets) [3]: 24 (24) μM/mL
- MIC [3]: 24 (24) μM/mL
- MIC/MBC ([5]; K. pneumoniae): 377 µM
- MBC (in brackets) ([5]; K. pneumoniae ATCC 700603): 377 (377) μM/mL
- MIC [5, 10]: 377 (377) μM/mL
- MBC (in brackets) [6]: 377 (377) μM/mL
- MIC [6]: 377 (377) μM/mL
- MBC (in brackets) [7]: (0.09) μM/mL
- MIC [7]: 0.04 μM/mL
- Log P ([8]; n-octanol/water, gold by FAAS): 0.56

Substance: (2-Mercaptoethanolato)(trimethylphosphine) gold (I) [Compound 27]
- MIC ([1]; A. baumannii): 5.7 µM
- MBC (in brackets) ([1]; A. baumannii NCTC 13420): 23 μM/mL
- MIC [1, 9]: 6/3
- MIC/MBC ([2]; E. cloacae): 2.9 µM
- MIC/MBC, fold lower than / improvement over auranofin ([2]; E. cloacae): 65 fold
- MBC (in brackets) [2]: 3 (3) μM/mL
- MIC [2]: 3 (3) μM/mL
- MBC (in brackets) [3]: 11 μM/mL
- MIC [3]: 1/6
- MBC (in brackets) [4]: 0.3 (0.3) μM/mL
- MIC [4]: 0.3 (0.3) μM/mL
- MIC ([5]; K. pneumoniae): 11 µg/mL
- MIC or MIC/MBC, fold lower than auranofin ([5]; K. pneumoniae): 34 fold
- MBC (in brackets) ([5]; K. pneumoniae ATCC 700603): 23 μM/mL
- MIC [5, 10]: 11 μM/mL
- activity in words ([6]; P. aeruginosa): showed activity
- MBC (in brackets) [6]: 91 μM/mL
- MIC [6]: 23/91
- MBC (in brackets) [7]: 0.7 μM/mL
- MIC [7]: 0.3 μM/mL
- Log P [8]: −0.15

Substance: [2,3,4,6-Tetra-O-acetyl-α-D-glucopyranosyl (1→4)-2,3,6-tri-O-acetyl-1-thio-β-D-glucopyranosato](triethylphosphine) gold(I) [Compound 5]
- MBC (in brackets) ([1]; A. baumannii NCTC 13420): 33 (33) μM/mL
- MIC [1, 9]: 33 (33) μM/mL
- MBC (in brackets) [2]: 66 (66) μM/mL
- MIC [2]: 66 (66) μM/mL
- MBC (in brackets) [3]: 17 (17) μM/mL
- MIC [3]: 17 (17) μM/mL
- MBC (in brackets) [4]: 6 (0.1) μM/mL
- MIC [5, 10]: >265 μM/mL
- MBC (in brackets) [6]: 132 (132) μM/mL
- MIC [6]: 132 (132) μM/mL
- MBC (in brackets) [7]: (0.06) μM/mL
- MIC [7]: 0.008 μM/mL
- Log P [8]: 0.45
